Calls of active or inactive are those of the source. The rule behind the calls is not given here.
What was measured:
[1] = system: SNB-75; experiment: Antiproliferative activity against human SNB75 cells at 10 uM after 24 hrs by SRB assay; assay type: functional, cell-based
[2] = system: SF-295; experiment: Antiproliferative activity against human SF295 cells at 10 uM after 24 hrs by SRB assay; assay type: functional, cell-based
[3] = system: C6; experiment: Antiproliferative activity against rat C6 cells at 0.1 to 10 uM after 48 hrs by neutral red incorporation assay; assay type: functional, cell-based
[4] = Cytotoxicity against mouse astrocytes assessed as decrease in cell viability after 48 hrs by Hoechst 33342 staining; assay type: cell-based; details: astrocyte
[5] = Cytotoxicity against mouse astrocytes assessed as decrease in cell viability after 48 hrs by propidium iodide incorporation assay; assay type: cell-based; details: astrocyte
[6] = Cytotoxicity against mouse astrocytes assessed as decrease in cell viability at 10 uM after 48 hrs by neutral red incorporation assay; assay type: cell-based; details: astrocyte
[7] = system: C6; experiment: Antiproliferative activity against rat C6 cells at 100 uM after 48 hrs by neutral red incorporation assay; assay type: functional, cell-based
[8] = Cytotoxicity against mouse astrocytes assessed as decrease in cell viability at 1 to 100 uM after 48 hrs by neutral red incorporation assay; assay type: cell-based; details: astrocyte
[9] = Cytotoxicity against mouse astrocytes assessed as decrease in cell viability at 1 to 100 uM after 48 hrs by propidium iodide incorporation assay; assay type: cell-based; details: astrocyte
[10] = Cytotoxicity against mouse astrocytes assessed as decrease in cell viability at 1 to 100 uM after 48 hrs by Hoechst 33342 staining; assay type: cell-based; details: astrocyte
[11] = Cytotoxicity against mouse astrocytes assessed as decrease in cell viability at 1 to 10 uM after 48 hrs by propidium iodide incorporation assay; assay type: cell-based; details: astrocyte
[12] = Cytotoxicity against mouse astrocytes assessed as decrease in cell viability at 0.1 uM after 48 hrs by Hoechst 33342 staining; assay type: cell-based; details: astrocyte
[13] = Cytotoxicity against mouse astrocytes assessed as decrease in cell viability at 0.1 uM after 48 hrs by neutral red incorporation assay; assay type: cell-based; details: astrocyte
[14] = Cytotoxicity against mouse astrocytes assessed as decrease in cell viability at 0.1 uM after 48 hrs by propidium iodide incorporation assay; assay type: cell-based; details: astrocyte
[15] = Cytotoxicity against mouse astrocytes assessed as decrease in cell viability at 1 to 10 uM after 48 hrs by neutral red incorporation assay; assay type: cell-based; details: astrocyte
[16] = system: C6; experiment: Antiproliferative activity against rat C6 cells after 48 hrs by MTT assay; assay type: functional, cell-based; details: C6, 48 h
[17] = system: LOX IMVI; experiment: Antiproliferative activity against human LOXIMVI cells at 10 uM after 24 hrs by SRB assay; assay type: functional; details: read-out: GI
[18] = system: SF-268; experiment: Antiproliferative activity against human SF268 cells at 10 uM after 24 hrs by SRB assay; assay type: functional, cell-based
[19] = system: C6; experiment: Cytotoxicity against rat C6 cells at 10 uM after 1 hr by LDH Assay; assay type: functional, cell-based
[20] = system: DU-145; experiment: Antiproliferative activity against human DU145 cells assessed as higher lowest toxic concentration after 48 hrs by MTT assay relative to control; assay type: functional
[21] = system: C6; experiment: Antiproliferative activity against rat C6 cells at 0.1 to 100 uM after 48 hrs by neutral red incorporation assay; assay type: functional, cell-based
[22] = system: Caco-2; experiment: Antiproliferative activity against human Caco2 cells at 10 uM after 48 hrs by MTT assay relative to control; assay type: functional
[23] = system: Caco-2; experiment: Antiproliferative activity against human Caco2 cells assessed as higher lowest toxic concentration after 48 hrs by MTT assay relative to control; assay type: functional
[24] = system: MDA-MB-231; experiment: Antiproliferative activity against human MDA-MB-231 cells at 10 uM after 48 hrs by MTT assay relative to control; assay type: functional
[25] = system: HOP-62; experiment: Antiproliferative activity against human HOP62 cells at 10 uM after 24 hrs by SRB assay; assay type: functional, cell-based
[26] = system: NCI-H522; experiment: Antiproliferative activity against human NCI-H522 cells at 10 uM after 24 hrs by SRB assay; assay type: functional, cell-based
[27] = system: C6; experiment: Antiproliferative activity against rat C6 cells at 10 uM after 48 hrs by MTT assay relative to control; assay type: functional
[28] = system: DU-145; experiment: Antiproliferative activity against human DU145 cells at 10 uM after 48 hrs by MTT assay relative to control; assay type: functional
[29] = system: MDA-MB-435; experiment: Antiproliferative activity against human MDA-MB-435 cells at 10 uM after 48 hrs by MTT assay relative to control; assay type: functional
[30] = system: Huh-7; experiment: Antiproliferative activity against human HuH7 cells at 10 uM after 48 hrs by MTT assay relative to control; assay type: functional
[31] = system: MDA-MB-231; experiment: Antiproliferative activity against human MDA-MB-231 cells assessed as higher lowest toxic concentration after 48 hrs by MTT assay relative to control; assay type: functional
[32] = system: C6; experiment: Antiproliferative activity against rat C6 cells assessed as higher lowest toxic concentration after 48 hrs by MTT assay relative to control; assay type: functional
[33] = system: B16-F10; experiment: Antiproliferative activity against mouse B16F10 cells assessed as higher lowest toxic concentration after 48 hrs by MTT assay relative to control; assay type: functional
[34] = system: UO-31; experiment: Antiproliferative activity against human UO31 cells at 10 uM after 24 hrs by SRB assay; assay type: functional; details: UO-31, 24 h, read-out: GI
[35] = system: MDA-MB-468; experiment: Antiproliferative activity against human MDA-MB-468 cells at 10 uM after 24 hrs by SRB assay; assay type: functional, cell-based
[36] = system: A-431; experiment: Antiproliferative activity against human A431 cells at 10 uM after 48 hrs by MTT assay relative to control; assay type: functional
[37] = system: MDA-MB-435; experiment: Antiproliferative activity against human MDA-MB-435 cells assessed as higher lowest toxic concentration after 48 hrs by MTT assay relative to control; assay type: functional
[38] = system: Huh-7; experiment: Antiproliferative activity against human HuH7 cells assessed as higher lowest toxic concentration after 48 hrs by MTT assay relative to control; assay type: functional
[39] = system: SK-OV-3; experiment: Antiproliferative activity against human SKOV3 cells at 10 uM after 24 hrs by SRB assay; assay type: functional, cell-based
[40] = system: U-251; experiment: Antiproliferative activity against human U251 cells at 10 uM after 24 hrs by SRB assay; assay type: functional, cell-based
[41] = system: B16-F10; experiment: Antiproliferative activity against mouse B16F10 cells at 10 uM after 48 hrs by MTT assay relative to control; assay type: functional
[42] = system: A-431; experiment: Antiproliferative activity against human A431 cells assessed as higher lowest toxic concentration after 48 hrs by MTT assay relative to control; assay type: functional

## CC(=O)O[C@H]1C(=O)[C@@]2(C)[C@H]([C@H](OC(=O)c3ccccc3)[C@]3(O)C[C@H](OC(=O)[C@H](O)[C@@H](NC(=O)c4ccccc4)c4ccccc4)C(C)=C1C3(C)C)[C@]1(OC(C)=O)CO[C@@H]1C[C@@H]2O [PACLITAXEL]
[1]
  growth inhibition (GI): Active
[2]
  growth inhibition (GI): Active
[3]
  Activity: Active
[4]
  Activity: Dose-dependent effect
[5]
  Activity: Dose-dependent effect
[6]
  Activity: 28%

## Cn1nnc2c(C(N)=O)ncn2c1=O [TEMOZOLOMIDE]
[1]
  growth inhibition (GI): Active
[7]
  Activity: Active
[8]
  Activity: Non-toxic
[9]
  Activity: Non-toxic
[2]
  growth inhibition (GI): Active
[10]
  Activity: Non-toxic

## CC[C@]1(O)C[C@H]2CN(CCc3c([nH]c4ccccc34)[C@@](C(=O)OC)(c3cc4c(cc3OC)N(C=O)[C@H]3[C@@](O)(C(=O)OC)[C@H](OC(C)=O)[C@]5(CC)C=CCN6CC[C@]43[C@@H]65)C2)C1 [VINCRISTINE]
[11]
  Activity: Toxic
[12]
  Activity: Toxic
[13]
  Activity: Toxic
[14]
  Activity: Toxic
[3]
  Activity: Active
[15]
  Activity: 60%

## Cc1ccc([P@]2(=O)O[C@H](COCc3ccccc3)[C@@H](OCc3ccccc3)[C@H](OCc3ccccc3)[C@@H]2O)cc1
[16]
  EC50: > 25 µM

## O=[P@]1(c2cccc(C(F)(F)F)c2)O[C@H](COCc2ccccc2)[C@@H](OCc2ccccc2)[C@H](OCc2ccccc2)[C@H]1O
[16]
  EC50: > 25 µM

## O=[P@@]1(c2cccc(F)c2)O[C@H](COCc2ccccc2)[C@@H](OCc2ccccc2)[C@H](OCc2ccccc2)[C@@H]1O
[16]
  EC50: > 25 µM

## COc1ccc([P@]2(=O)O[C@H](COCc3ccccc3)[C@@H](OCc3ccccc3)[C@H](OCc3ccccc3)[C@@H]2O)cc1
[16]
  EC50: 2.9 µM

## Cc1ccc([P@@]2(=O)O[C@H](COCc3ccccc3)[C@@H](OCc3ccccc3)[C@H](OCc3ccccc3)[C@H]2O)cc1
[16]
  EC50: > 25 µM

## COc1cccc([P@]2(=O)O[C@H](COCc3ccccc3)[C@@H](OCc3ccccc3)[C@H](OCc3ccccc3)[C@@H]2O)c1
[16]
  EC50: > 25 µM

## Cc1ccc([P@]2(=O)O[C@H](COCc3ccccc3)[C@@H](OCc3ccccc3)[C@H](OCc3ccccc3)[C@H]2O)cc1
[16]
  EC50: > 25 µM

## O=NN(CCCl)C(=O)NCCCl [CARMUSTINE]
[8]
  Activity: Non-toxic
[9]
  Activity: Non-toxic
[10]
  Activity: Non-toxic
[3]
  Activity: Active

## O=[P@@]1(c2ccccc2)O[C@H](COCc2ccccc2)[C@@H](OCc2ccccc2)[C@H](OCc2ccccc2)[C@@H]1O
[17]
  inhibition of growth at 10 µM: 45%
[18]
  growth inhibition (GI): Active
[19]
  Activity: Active
[20]
  Activity: 1 µM
[21]
  Activity: Active
[22]
  Activity: 15%
[23]
  Activity: 5 µM
[24]
  Activity: 18%
[25]
  growth inhibition (GI): Active
[26]
  growth inhibition (GI): Active
[27]
  Activity: 31%
[28]
  Activity: 14%
[29]
  Activity: 43%
[16]
  EC50: 23.8 µM
[30]
  Activity: 55%
[31]
  Activity: 5 µM
[32]
  Activity: 0.1 µM
[33]
  Activity: 25 µM
[34]
  inhibition of growth at 10 µM: 50%
[35]
  growth inhibition (GI): Active
[36]
  Activity: 33%
[37]
  Activity: 0.1 µM
[38]
  Activity: 0.1 µM
[39]
  growth inhibition (GI): Active
[40]
  growth inhibition (GI): Active
[41]
  Activity: inactive
[42]
  Activity: 5 µM

## O=[P@@]1(c2cccc(C(F)(F)F)c2)O[C@H](COCc2ccccc2)[C@@H](OCc2ccccc2)[C@H](OCc2ccccc2)[C@H]1O
[16]
  EC50: > 25 µM

## CC(=O)O[C@@H]1[C@@H](OCc2ccccc2)[C@H](OCc2ccccc2)[C@@H](COCc2ccccc2)O[P@@]1(=O)c1ccccc1
[16]
  EC50: 11.9 µM

## Cc1cccc([P@]2(=O)O[C@H](COCc3ccccc3)[C@@H](OCc3ccccc3)[C@H](OCc3ccccc3)[C@@H]2O)c1
[16]
  EC50: > 25 µM

## N[C@H]1[C@@H](OCc2ccccc2)[C@H](OCc2ccccc2)[C@@H](COCc2ccccc2)O[P@@]1(=O)c1ccccc1
[16]
  EC50: 18.7 µM

## COc1cccc([P@@]2(=O)O[C@H](COCc3ccccc3)[C@@H](OCc3ccccc3)[C@H](OCc3ccccc3)[C@@H]2O)c1
[16]
  EC50: > 25 µM

## O=[P@]1(c2cccc(C(F)(F)F)c2)O[C@H](COCc2ccccc2)[C@@H](OCc2ccccc2)[C@H](OCc2ccccc2)[C@@H]1O
[16]
  EC50: > 25 µM

## O=[P@@]1(c2ccccc2)O[C@H](COCc2ccccc2)[C@@H](OCc2ccccc2)[C@H](OCc2ccccc2)[C@H]1NCc1ccccc1
[16]
  EC50: 2.68 µM

## [N-]=[N+]=N[C@H]1[C@@H](OCc2ccccc2)[C@H](OCc2ccccc2)[C@@H](COCc2ccccc2)O[P@@]1(=O)c1ccccc1
[16]
  EC50: > 25 µM

## C=CCN[C@@H]1[C@@H](OCc2ccccc2)[C@H](OCc2ccccc2)[C@@H](COCc2ccccc2)O[P@@]1(=O)c1ccccc1
[16]
  EC50: 0.49 µM

## CO[C@@H]1[C@@H](OCc2ccccc2)[C@H](OCc2ccccc2)[C@@H](COCc2ccccc2)O[P@@]1(=O)c1ccccc1
[16]
  EC50: 16.6 µM
